In patent US20250230138A1, “COMPOUNDS HAVING A T-STRUCTURE FORMED BY AT LEAST FOUR CYCLES FOR USE IN THE TREATMENT OF CANCER AND OTHER INDICATIONS” (TheRas, Inc., priority 2022, published 2025):
Where two headings read alike, the source gives them in different places.

Columns and labels:
[1] = target: Cys242 in human PIK3CA (157-299) (Homo sapiens (Human), UniProt P42336); test: Covalent modification assay using MALDI-TOF MS; format: biochemical; details: 4 h reaction time point
Description: Matrix-Assisted Laser Desorption Ionization-Time of Flight Mass Spectrometry (MALDI-TOF MS) analysis of covalent modification of Cys242 in human PIK3CA (157-299) was performed.
Reaction: 3.33 μM or 1 μM of PIK3CA (157-299) protein (produced in-house by Protein Expression Laboratory, FNLCR/Leidos Biomed) in 20 mM HEPES buffer containing 150 mM NaCl, 2 mM MgCl2, pH 7.3 was prepared freshly before assay. Twelve-μL aliquots of protein were dispensed onto low volume 384-well plate, then 470 nL DMSO and 30 nL of tested compounds from 10 mM DMSO stocks were added to appropriate wells using ECHO 555 acoustic liquid handler (Labcyte Inc.). For each reaction/assay, three blanks were prepared by mixing 12 μL of protein solution with 500 nL DMSO. The wells content was carefully mixed by aspiration, and then the plate was sealed by an adhesive cover, centrifuged at 931 g for 1 minute, and kept in the dark at room temperature until 15 min, 30 min, 2 h, or 4 h collections.
Targetpretreatment: Before each assay MALDI target (Bruker MPT 384 ground steel BC) was pre-treated by pipetting on each spot 0.75 μL of saturated sinapinic acid in acetonitrile (ACN).
Sample preparation: At collection time point, 2 μL of reaction mixtures were pipetted out into […] MALDI matrix solution (saturated solution of sinapinic acid in 1:1 ACN:water solution containing 0.15% trifluoroacetic acid (TFA)) deposited on 384 well polypropylene plate. The resulting solution was mixed by aspiration, centrifuged at 931 g for 1 minute, then 1.5 μL aliquots were dispensed on pre-treated MALDI target using Beckman Coulter Biomek FX^P 96/384-Span-8 Laboratory Automation Workstation. Finally, the MALDI target was dried under a mild vacuum to produce spots with a fine crystalline structure.
Measurements: MALDI-TOF measurements were performed on Bruker Daltonics rapifleX Tissuetyper TOF-TOF mass spectrometer using linear mode and mass ranging from 16.0 to 19.6 kDa. Detector gain was set to 0.64×(459 V), sample rate to 5 GS/s, real-time smoothing to medium (175 MHz), laser smart beam pattern was set to “Custom” single smartbeam beam scan with a scan range of 40 μm on both X and Y axis, and the laser frequency was 10000 Hz. Spectra were automatically collected using the custom AutoXecute method. Laser power was auto adjusted using fuzzy control. The peak selection range was set to be between 16.0 and 18.5 kDa. Peak evaluation uses a half-width parameter set to be smaller than 40 Da for processed spectrograms (centroid peak detection; smoothed by SavitzkyGolay algorithm using 7 m/z width and 2 cycles; baseline was subtracted using a median algorithm with flatness 1 and median level 0). Fuzzy control used Proteins/Oligonucleotides protocol with minimum half-width 1/10 times above threshold. Up to 40000 satisfactory shots were collected in 10000 short steps. Dynamic termination was implemented to finish data collection when the peak signal/noise ratio was reaching a value of 1000.
Spectra processing: Spectra were smoothed by SavitzkyGolay algorithm using 7 m/z width and three cycles. Centroid peak detection algorithm was used with signal to noise threshold set to 6, relative intensity threshold 3%, peak width 10 m/z, and median baseline subtraction using flatness of 1 and the median level of 0.1. Peak intensity and area under the peak were evaluated and recorded for all peaks between 16.0 and 19.5 kDa.
Calculation of percent modification: Percent modification was calculated as a ratio of peak height for protein modified by compound to the sum of the peak height of remaining protein plus peak height for protein modified by a compound. If multiple modifications were observed each was calculated as a ratio of peak height for given modification versus the sum of peak heights for all observed protein species.

pAKT in BT474 cells = test: Cell-based pAKT HTRF assay in BT474 cells; details: BT474 cells, 4 hr incubation, read-out: pAKT inhibition IC50 in BT474 cells
Description: On Day 1, cells were seeded into 96-well plates at 2.5×10^4 cells/well in complete growth media (DMEM, 10% FBS). On Day 2, cells were treated with compounds at 0.25% DMSO. The source plate was created with compounds diluted in media at 5-fold the final assay concentration. The compounds are run in a 9-point concentration curve starting at 3 μM, with a 3-fold dilution between concentrations. 20 μL was transferred onto the cell plates (final volume in wells was 100 μL). Plates were harvested after 4 hr incubation by aspirating media and adding kit-supplied 1× supplemented lysis buffer to all wells (75 μL per well). Plates were then placed on a plate shaker and incubated at 850 rpm for an additional 30 min. The antibody mixture solution was prepared by diluting aliquoted d2 and Eu Cryptate antibodies 1:20 in kit supplied detection buffer, then mixed the diluted antibodies solutions (1:1 v:v). 4 μL of this solution was then added to a 384-well detection plate (Perkin Elmer; 6008230). Samples were homogenized by pipetting up and down and then transferred (16 μL of cell lysates) from the 96-well cell culture plate to two wells of the HTRF 384-well detection plate containing the antibody solution. Plates were centrifuged (524 g for 1 min) and allowed to incubate between 4 and 24 h at room temperature. The maximum signal is reached after 4 h incubation time and remains stable over a period of 24 hours. Therefore, readings can be made between 4 and 24 h of incubation. Plates were centrifuged again (524 g for 1 m), and analyzed on the EnVision plate reader using the following settings: Excitation 320 nm, Bandwidth […]; Emission 615 nm, Bandwidth […], Gain 10000, Flashes 100, Lag 60 μs.

[2] = 1 μM protein target, 1:5 protein to compound ratio (compounds 853-1279)
[3] = 3.33 μM protein target, 1:7.5 protein to compound ratio (compounds 1-852)

Chain of Cys242 in human PIK3CA (157-299) (P42336 157-299): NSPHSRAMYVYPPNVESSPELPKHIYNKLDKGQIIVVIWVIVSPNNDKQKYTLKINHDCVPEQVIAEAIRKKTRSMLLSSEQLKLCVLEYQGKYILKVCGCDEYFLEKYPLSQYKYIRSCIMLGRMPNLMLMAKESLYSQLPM

IC50 (pAKT in BT474 cells; Compounds 1000-1279)	IC50 (pAKT in BT474 cells; Compounds 10-999)	SMILES	% of modification [1, 2]	% of modification [1, 3]
< 100 nM		C=CC(=O)N1CCn2nc(-c3nc(-c4ccc5c(c4)CNC(=O)C5(C)C)c4ccsc4c3-c3c(F)cc(F)cc3OCCOC)cc2C1C (centres unmarked) [Compound 1079]	A (percent of modification of PIK3CA protein ≥75%)	
	< 100 nM	C=CC(=O)N1CCn2nc(-c3nc(-c4ccc5c(c4)C(=O)N(C)C5)c4ccsc4c3-c3c(F)cc(F)cc3OCCO)cc2C1C (centres unmarked) [Compound 867]	A (percent of modification of PIK3CA protein ≥75%)	
< 100 nM		C=CC(=O)N1CCn2nc(-c3nc(-c4ccn(C5CN(C)C5)c(=O)c4)c4ccsc4c3-c3c(F)cc(F)cc3OCCOC)cc2C1C (centres unmarked) [Compound 1080]	A (percent of modification of PIK3CA protein ≥75%)	
	< 100 nM	C=CC(=O)N1Cc2cc(-c3nc(-c4ccc5nncn5c4)c4ccsc4c3-c3c(F)cc(F)cc3OCCO)nn2CC1C (centres unmarked) [Compound 903]	A (percent of modification of PIK3CA protein ≥75%)	
	< 100 nM	C=CC(=O)N1Cc2cc(-c3nc(-c4cnc(C)nc4)c4ccsc4c3-c3c(F)cc(F)cc3OCCO)nn2C(C)C1 (centres unmarked) [Compound 785]		A (percent of modification of PIK3CA protein ≥75%)
	< 100 nM	C=CC(=O)N1CCn2nc(-c3nc(-c4ccc(CN5CC(F)(F)C5)nc4)c4ccsc4c3-c3c(F)cc(F)cc3OCCOC)cc2[C@H]1C [Compound 529]		A (percent of modification of PIK3CA protein ≥75%)
	< 100 nM	C=CC(=O)N1CCn2nc(-c3nc(-c4cnc5cnn(C)c5c4)c4ccsc4c3-c3c(F)cc(F)cc3OCCOC)cc2C1C (centres unmarked) [Compound 902]	A (percent of modification of PIK3CA protein ≥75%)	
	< 100 nM	C=CC(=O)N1CCn2nc(-c3nc(-c4ccc5c(cnn5C)c4)c4ccsc4c3-c3c(F)cc(F)cc3OCCO)cc2[C@H]1C [Compound 652]		C (25%≤percent of modification <50%)
	< 100 nM	C=CC(=O)N1CCn2nc(-c3nc(-c4ccc5cnn(C)c5c4)c4ccsc4c3-c3c(F)cc(F)cc3OCCO)cc2[C@H]1C [Compound 776]		A (percent of modification of PIK3CA protein ≥75%)
	< 100 nM	C=CC(=O)N1CCc2ncc(-c3nc(-c4ccc5c(c4)CNC5=O)c4ccsc4c3-c3c(F)cc(F)cc3OC(C)C)cc2C1 [Compound 326]		A (percent of modification of PIK3CA protein ≥75%)
	< 100 nM	C=CC(=O)N1CCn2nc(-c3nc(-c4ccc5cnn(C)c(=O)c5c4)c4ccsc4c3-c3c(F)cc(F)cc3OCCOC)cc2[C@@H]1C [Compound 898]	A (percent of modification of PIK3CA protein ≥75%)	
	< 100 nM	C=C(F)C(=O)N1CCn2nc(-c3nc(-c4ccc5c(c4)CNC5=O)c4ccsc4c3-c3c(F)cc(F)cc3OCC)cc2C1 [Compound 321]		B (50%<percent of modification <75%)
	< 100 nM	C=CC(=O)N1CCn2nc(-c3nc(N4CCC5(CC4)CS(=O)(=O)C5)c4ccsc4c3-c3ccc(F)cc3OC(C)C)cc2C1 [Compound 211]		A (percent of modification of PIK3CA protein ≥75%)
< 100 nM		C=CC(=O)N1CCn2nc(-c3nc(-c4ccc(C(=O)NCCN(C)C)cc4)c4ccsc4c3-c3c(F)cc(F)cc3OCCOC)cc2C1C (centres unmarked) [Compound 1059]	A (percent of modification of PIK3CA protein ≥75%)	
	100 to 1000 nM	C=CC(=O)N1CCn2nc(-c3nc(-c4cnn(C)c4)c4ccsc4c3-c3c(F)cc(F)cc3F)cc2C1 [Compound 292]		A (percent of modification of PIK3CA protein ≥75%)
	100 to 1000 nM	C=CC(=O)N1CCc2nc(-c3nc(N4CCCC(N(C)C)C4)c4ccsc4c3-c3ccc(F)cc3OCCOC)sc2C1 (centres unmarked) [Compound 159]		B (50%<percent of modification <75%)
